# Reference: patent publication US20180369238A1, “DOPAMINE AGONISTS IN TREATING ALCOHOL USE DISORDERS ASSOCIATED WITH DOPAMINE RECEPTOR ACTIVITY” (MUSC Foundation for Research Development, priority 2017, published 2018)
# Key:
# [1] = system: non-treatment-seeking AUD individuals; assay: fMRI alcohol cue-reactivity task (alcohol cue-elicited ventral striatal activation); format: in vivo, human; parameters: VS Activation: effect size of interaction medication x genotype permutation: scale not given here; settings: for Alcohol cue-elicited VS activation (ALC vs. BEV percent signal change): APZ relative to placebo, day 7; for VS Activation: effect size of interaction medication x genotype permutation: n = 81
# From the text: (§1) The study was an eight-day sub-acute dosing human laboratory investigation (ClinicalTrials.gov identifier: NCT01292057). After randomization to study medication, subjects underwent an fMRI alcohol cue-reactivity task on day 7 of medication ingestion and a bar-lab paradigm on day 8. To maximize cue-reactivity and motivation to drink, they were instructed to abstain from alcohol on the evenings of days 6 and 7.
# (§2) Randomization and medication. […] Subjects and investigators were blind to both genotype and medication assignment. Thus, subjects were stratified by their baseline Barratt Impulsiveness Scale (BIS-11) score (Patton et al., 1995) into groups with BIS-11 scores greater vs. less than the median score of 68 and randomization was conducted separately within each stratum. Urn variables balanced across medication groups within each stratum were sex and smoking status.
# Neuroimaging. On day 7, subjects were breathalyzed, assessed for alcohol withdrawal, and re-administered the OCDS. As noted above, one subject with a BAC>0 and two subjects with Clinical Institute Withdrawal Assessment for Alcohol-Revised scores >4 were excluded from scanning. After acquisition of a high-resolution anatomical image, subjects were given a sip (10 ml) of their preferred 80-proof liquor mixed with fruit juice and administered a 12-m-long task during which they passively viewed pseudo-randomly interspersed blocks of alcoholic beverage images (ALC; equally distributed between beer, wine, and liquor), nonalcoholic beverage images (BEV), blurred versions of these images that served as visual controls, and a fixation cross. Each 24-s-long block comprised only one image type and was followed by a 6-s period during which subjects were instructed to rate their urge for alcohol. Images were selected from a normative set, supplemented with images from advertisements, and matched for intensity, color, and complexity. This task consistently elicits robust cue-elicited VS activation among non-treatment-seeking AUD individuals.
# Functional images were acquired with a gradient echo, echo-planar imaging sequence implemented on a 3T TIM Trio scanner (Siemens, Erlangen, Germany). Acquisition parameters were: repetition/echo times=2200/35 ms; 328 volumes; flip angle=90°; field of view=192 mm; matrix=64×64; voxel size=3.0×3.0 mm; 36 contiguous 3.0-mm-thick transverse slices. Using FEAT (fMRI Expert Analysis Tool) v. 6.00, part of FSL (FMRIB Software Library, University of Oxford, United Kingdom), functional images were realigned to the middle volume, spatially smoothed (8-mm full width at half maximum kernel), resampled to 2-mm isotropic voxels, and registered, first to the subject's high-resolution anatomical image and subsequently to the Montreal Neurological Institute (MNI; Montréal, Canada) 152-subject-average template. Based on previous data indicating an interaction between DAT1/SLC6A3 genotype and naltrexone on alcohol cue-elicited VS activation, the right VS was defined a priori as a 6-mm-radius sphere centered at the point [12 15 −6] in MNI space. For each subject, this sphere was reverse-registered from the MNI-152 image to the subject's anatomical image, and the average percentage change of the blood-oxygen-level-dependent signal between ALC and BEV blocks (i.e., ALC vs. BEV percent signal change) was extracted.
# Statistical analysis. The general linear model (GLM; SPSS 23, IBM, Armonk, N.Y., United States of America) was used to test the interaction between medication and DAT1/SLC6A3 genotype on the primary outcomes (VS ALC vs. BEV activation and the number of drinks consumed in the bar lab). A model that included between-subjects factors for medication, DAT1/SLC6A3 genotype, and their interaction was tested for each outcome. Analyses first compared 9R carriers to 10R homozygotes, and subsequently examined the additive effect of the 9R allele. […] Significant interactions were followed up with simple effects contrasts. […]
# [2] = system: non-treatment-seeking AUD individuals; assay: Bar-lab paradigm (alcohol self-administration); format: in vivo, human; settings: for Bar Lab Drinks: effect size of interaction medication x genotype permutation: n = 94
# From the text: as §1, §2
# Bar-lab paradigm. […] Thirty minutes later, they were provided a standard caloric lunch, adjusted for gender and weight. At 2:00 PM, subjects were administered a priming drink of their preferred 80-proof liquor in a 1:3 ratio with juice, adjusted for gender, age, and weight to produce a targeted BAC of 30 mg %, and instructed to consume it within five minutes. Forty minutes later, subjects were presented a tray of four drinks, each with a targeted BAC of 15 mg %, and told they could consume as many as they desired over the next hour. After an hour, this tray was removed and another tray of four drinks was made available for consumption over a second hour. To create a decisional balance between drinking and abstaining, subjects were given a “bar credit” of $16 with which to “purchase” drinks, at the cost of $2/drink. After the procedure, subjects were given dinner and remained until 10:00 PM. A BAC measurement below 20 mg % was required before departure, and a friend or taxi drove subjects home.
# Statistical analysis. The general linear model (GLM; SPSS 23, IBM, Armonk, N.Y., United States of America) was used to test the interaction between medication and DAT1/SLC6A3 genotype on the primary outcomes (VS ALC vs. BEV activation and the number of drinks consumed in the bar lab). A model that included between-subjects factors for medication, DAT1/SLC6A3 genotype, and their interaction was tested for each outcome. Analyses first compared 9R carriers to 10R homozygotes, and subsequently examined the additive effect of the 9R allele. […] Significant interactions were followed up with simple effects contrasts. VS activation was also analyzed for correlation (Pearson's r) with day 7 OCDS scores and bar-lab drinking.
# The GLM was also used to test the interaction between medication and a DA-related genetic composite on the primary outcomes. The DAT1/SLC6A3 9R, COMT met, DRD2 T, and DRD4 long alleles were categorized as higher-DA alleles, and the total number of alleles each subject carried was calculated (Table 2). Few subjects carried more than four higher-DA alleles (four subjects had five alleles and one had seven), so these subjects were combined with those who carried four, yielding five groups of subjects with zero (n=7), one (n=15), two (n=31), three (n=22), or four or more (n=18) alleles. A model that included between-subjects factors for medication, the additive effect of the number of higher-DA alleles, and their interaction was tested for each outcome.
# [3] = system: non-treatment-seeking AUD individuals; assay: Adverse effects, physical symptom checklist; format: in vivo, human; settings: for Number of subjects with insomnia severity Mild / Number of subjects with insomnia severity Moderate / Number of subjects with insomnia severity None / Number of subjects with insomnia severity Severe: APZ group
# From the text: Adverse effects. A physical symptom checklist was used to assess the presence and severity (self-rated as none, mild, moderate, or severe) of 21 possible adverse effects at baseline and on day 8 immediately before the bar-lab paradigm.
# For the secondary outcome (adverse effect severity), the GLM was first used to evaluate the main effect of medication on the presence/absence of each effect. […] To account for the influence of these effects on the pharmacogenetic interactions evaluated above, the presence/absence of each was evaluated as a covariate in all models.
# [4] = system: AUD; settings: multisite AUD clinical trial; cited from earlier work
# [5] = cited from earlier work
# [6] = system: healthy adults; settings: relative to placebo; healthy adults who carried more higher-DA alleles; cited from earlier work
# [7] = 9R carriers vs. 10R homozygotes, APZ vs. placebo
# [8] = DAT1 (additive effect of 9R alleles), APZ reduced more with more alleles
# [9] = DAT1 (additive effect of 9R alleles), APZ reduced more with more alleles, listed as aripiprazole
# [10] = DAT1 + COMT + DRD2 + DRD4 (higher-DA alleles composite)
structure (smiles),measurement,setting,value
"O=C1CCc2ccc(OCCCCN3CCN(c4cccc(Cl)c4Cl)CC3)cc2N1 [APZ, aripiprazole]",Effect size (partial η2) of interaction medication x DAT1/SLC6A3 genotype on VS activation,[1]; [7],0.061
same,Alcohol cue-elicited VS activation (ALC vs. BEV percent signal change),[1]; DAT1/SLC6A3 9R carriers,reduced VS activation
same,Alcohol cue-elicited VS activation (ALC vs. BEV percent signal change),[1]; DAT1/SLC6A3 10R homozygotes,increased it
same,VS Activation: effect size of interaction medication x genotype permutation,[1]; [8],0.067
same,VS Activation: effect size of interaction medication x genotype permutation,[1]; [9],0.063
same,VS Activation: effect size of interaction medication x genotype permutation,[1]; [10],0.051
same,VS Activation: effect size of interaction medication x genotype permutation,[1]; DAT1 + COMT + DRD2,0.026
same,VS Activation: effect size of interaction medication x genotype permutation,[1]; DAT1 + DRD2 + DRD4,0.084
same,VS Activation: effect size of interaction medication x genotype permutation,[1]; DAT1 + DRD2,0.068
same,VS Activation: effect size of interaction medication x genotype permutation,[1]; DAT1 + DRD4,0.077
same,Effect size (partial η2) of interaction medication x DAT1/SLC6A3 genotype on bar-lab drinking,[2]; [7],0.064
same,Bar-lab drinking (number of drinks consumed),"[2]; APZ relative to placebo, DAT1/SLC6A3 9R carriers, day 8",reduced drinking
same,Effect size (partial η2) of main effect of medication on bar-lab drinking,"[2]; APZ vs. placebo, all subjects",0.049
same,Bar Lab Drinks: effect size of interaction medication x genotype permutation,[2]; [8],0.068
same,Bar Lab Drinks: effect size of interaction medication x genotype permutation,[2]; [9],0.050
same,Bar Lab Drinks: effect size of interaction medication x genotype permutation,[2]; [10],0.069
same,Bar Lab Drinks: effect size of interaction medication x genotype permutation,[2]; DAT1 + COMT + DRD2,0.100
same,Bar Lab Drinks: effect size of interaction medication x genotype permutation,[2]; DAT1 + COMT + DRD4,0.071
same,Bar Lab Drinks: effect size of interaction medication x genotype permutation,[2]; DAT1 + COMT,0.079
same,Bar Lab Drinks: effect size of interaction medication x genotype permutation,[2]; DAT1 + DRD2 + DRD4,0.072
same,Bar Lab Drinks: effect size of interaction medication x genotype permutation,[2]; DAT1 + DRD2,0.081
same,Bar Lab Drinks: effect size of interaction medication x genotype permutation,[2]; DAT1 + DRD4,0.045
same,Effect size (partial η2) of simple effect of medication on bar-lab drinking,"[2]; among DAT1/SLC6A3 9R carriers, APZ vs. placebo",0.12
same,Effect size (partial η2) of simple effect of medication on bar-lab drinking,"[2]; among subjects with four or more higher-DA alleles, APZ vs. placebo",0.15
same,Number of subjects with insomnia severity Mild,[3]; 9R carriers,11
same,Number of subjects with insomnia severity Moderate,[3]; 9R carriers,6
same,Number of subjects with insomnia severity None,[3]; 9R carriers,11
same,Number of subjects with insomnia severity Severe,[3]; 9R carriers,0
same,Number of subjects with insomnia severity Mild,[3]; 10R homozygotes,8
same,Number of subjects with insomnia severity Moderate,[3]; 10R homozygotes,4
same,Number of subjects with insomnia severity None,[3]; 10R homozygotes,2
same,Number of subjects with insomnia severity Severe,[3]; 10R homozygotes,4
same,"Frequency of insomnia, daytime sleepiness, irritability, trouble concentrating, nausea/vomiting, dizziness, fatigue, blurry vision, difficulty reaching orgasm","[3]; APZ group vs. placebo, p<0.05, day 8",significantly more frequent
same,Insomnia severity,"[3]; APZ relative to placebo, DAT1/SLC6A3 9R carriers",did not
same,Insomnia severity,"[3]; APZ relative to placebo, DAT1/SLC6A3 10R homozygotes",more severe insomnia
same,Insomnia severity,"[3]; among subjects who received APZ, with a greater number of higher-DA alleles",less severe
same,Alcohol consumption biomarker,[4],significantly improve
same,Drinks per drinking day,[4],significantly improve
same,Primary drinking outcome (percent days abstinent),[4],did not significantly change
same,Euphoric effects of alcohol drinking,[5]; natural environment or bar-lab setting,reduce
same,Alcohol cue-elicited VS activation,[5]; reported earlier,reduce
CCCN(CCC)CCc1cccc2c1CC(=O)N2 [ropinirole],Impulsive decisions,[6],increased impulsive decisions
